# Experiments:
# Format in all cases: physicochemical
# [1] = Solid-state stability test (high temperature, high humidity, light exposure, acceleration); purity by HPLC, crystal form by XRPD; conditions: for change in the purity and form: 15 days under 60°C, 92.5% RH, 4500lux and 40°C/75% RH, respectively
# Description: (§1) Put an appropriate amount of the test sample (the compound shown by Formula (I) in the form of Crystal Form A) on a watch glass, spread it into a thin layer ≤ 5mm thick, and place it under a high temperature of 60°C, a high humidity of 92.5% RH, a light exposure of 4500lux and an acceleration condition of 40°C/75% RH for 15 days, respectively. Sample on the 7th and 15th day to observe the color change of the samples. Analyze the sample purity and crystal form through HPLC and XPRD detection, respectively. Table 5. Test results of Crystal Form A and amorphous stability
# as §1, with “(II)” for “(I)”, “B)” for “A)”, “the” for “the 7th and”, “sample.” for “samples.”, “8.” for “5.”, “B” for “A and amorphous”
# [2] = Solubility test in biological media (FaSSIF, FeSSIF), HPLC detection; conditions: for solubility (result in words): in FeSSIF and FaSSIF; for solubility at 0.5 h / solubility at 2 h / solubility at 24 h: 37°C
# Description: (§2) Add 20mg of the sample (the compound shown by Formula (I) in the form of Crystal Form A) into a 10ml conical tube, and then add 4ml of water or biological medium (FeSSIF (pH 5.0) or FaSSIF (pH 6.5)), respectively. Shake the solution at 37°C for 24h in a constant temperature bath at 1000rpm, and take samples at 0.5h, 2h and 24h, respectively. Filter the samples through an aquo-system microporous filter membrane and discard the initial filtrate to obtain the test solution.
# Perform an HPLC detection for the test solution (20µL), and calculate the sample concentration according to the standard curve method. Table 3. Solubility test results of Crystal Form A in different media
# as §2, with “(II)” for “(I)”, “B)” for “A)”
# Perform an HPLC detection for the test solution (20µL), and calculate the sample concentration according to the standard curve method. Table 6. Solubility test results of Crystal Form B in different media
# [3] = Hygroscopicity test with dynamic moisture absorber (DVS); conditions: for Weight gain at 80% RH: 25°C; for hygroscopicity (according to the definition criteria for hygroscopic weight gain): based on weight gain at 80% RH
# Description: The hygroscopicity results in the present invention can be measured using a DVS Intrinsic dynamic moisture and gas absorber from Surface Measurement Systems of the UK. Humidity variation: 50%-95%-0%-50%. The humidity change for each gradient within0% ~ 90% is 10%. Airflow: 200ml/min; temperature: 25°C; testing point: one testing point taken every 10% increase in humidity.
# Take an appropriate amount of the test sample (the compound shown by Formula (I) in the form of Crystal Form A) to test its hygroscopicity with a dynamic moisture absorber. Table 4. Hygroscopicity test results for Crystal Form A of the present invention
# Take an appropriate amount of the test sample (the compound shown by Formula (II) in the form of Crystal Form B) to test its hygroscopicity with a dynamic moisture absorber. Table 7. Hygroscopicity test results for Crystal Form B of the present invention
Compound,"purity ([1]; Acceleration 40°C/75%RH, 15d) [%]","purity ([1]; High humidity 92.5%RH, 15d) [%]","purity ([1]; High temperature 60°C, 15d) [%]","purity ([1]; Light exposure 4500lux, 15d) [%]",change in the purity and form [1],"Form (crystal form by XRPD) ([1]; Acceleration 40°C/75%RH, 15d)","Form (crystal form by XRPD) ([1]; High humidity 92.5%RH, 15d)","Form (crystal form by XRPD) ([1]; High temperature 60°C, 15d)","Form (crystal form by XRPD) ([1]; Light exposure 4500lux, 15d)",solubility (result in words) [2],Weight gain at 80% RH [3] [%],hygroscopicity (according to the definition criteria for hygroscopic weight gain) [3],other results
"O=C(N[C@@H](Cc1ccc(N2C(=O)C3(CC3)c3ccc(F)c(F)c32)cc1)C(=O)O)c1c(F)cccc1Cl [Amorphous, (S)-2-(2-chloro-6-fluorobenzoyl amido)-3-(4-(6',7'-difluoro-2'-oxospiro [cyclopropane-1,3'-indoline]-1'-yl)phenyl) propionic acid]",89.70,93.06,91.89,94.91,–,–,–,–,–,–,–,–,–
"O=C(N[C@@H](Cc1ccc(N2C(=O)C3(CC3)c3ccc(F)c(F)c32)cc1)C(=O)O)c1c(F)cccc1Cl [Crystal Form A, (S)-2-(2-chloro-6-fluorobenzoyl amido)-3-(4-(6',7'-difluoro-2'-oxospiro [cyclopropane-1,3'-indoline]-1'-yl)phenyl) propionic acid]",99.4,99.3,99.4,99.2,no significant change,Unchanged,Unchanged,Unchanged,Unchanged,good solubility,0.09,no or almost no hygroscopicity,"Form (crystal form by XRPD) ([1]; Acceleration 40°C/75%RH, 7d): Unchanged; purity ([1]; Acceleration 40°C/75%RH, 7d): 99.4%; Form (crystal form by XRPD) ([1]; High humidity 92.5%RH, 7d): Unchanged; purity ([1]; High humidity 92.5%RH, 7d): 99.3%; Form (crystal form by XRPD) ([1]; High temperature 60°C, 7d): Unchanged; purity ([1]; High temperature 60°C, 7d): 99.4%; Form (crystal form by XRPD) ([1]; Light exposure 4500lux, 7d): Unchanged; purity ([1]; Light exposure 4500lux, 7d): 99.2%; solubility (result in words) ([2]; listed as Crystal form A): relatively good"
"O=C(N[C@@H](Cc1ccc(N2C(=O)C3(CC3)c3ccc(F)c(F)c32)cc1)C(=O)O)c1c(F)cccc1Cl [Crystal Form B, (S)-2-(2-chloro-6-fluorobenzoyl amido)-3-(4-(6',7'-difluoro-2'-oxospiro [cyclopropane-1,3'-indoline]-1'-yl)phenyl) propionic acid]",–,–,–,–,no significant change,Unchanged,Unchanged,Unchanged,Unchanged,good solubility,0.71,a slight hygroscopicity,"purity ([1]; Acceleration 40°C/75%RH, 0d): 99.79%; purity ([1]; High humidity 92.5%RH, 0d): 99.79%; purity ([1]; High temperature 60°C, 0d): 99.79%; purity ([1]; Light exposure 4500lux, 0d): 99.79%; solubility at 0.5 h ([2]; FaSSIF (pH 6.5)): 3190 µg/mL; solubility at 2 h ([2]; FaSSIF (pH 6.5)): 2960 µg/mL; solubility at 24 h ([2]; FaSSIF (pH 6.5)): 2790 µg/mL; solubility at 0.5 h ([2]; FeSSIF (pH 5.0)): 869 µg/mL; solubility at 2 h ([2]; FeSSIF (pH 5.0)): 815 µg/mL; solubility at 24 h ([2]; FeSSIF (pH 5.0)): 734 µg/mL; solubility (result in words) ([2]; listed as Crystal form B): relatively good"

# Source: patent EP4538272B1, “CRYSTAL OF N-(BENZOYL)-PHE[…], AND PHARMACEUTICAL COMPOSITION THEREOF, AND PREPARATION METHOD THEREFOR AND USE THEREOF” (Hangzhou Apeloa Medicine Research Institute Co., Ltd., priority 2022, dated 2023)
